Experimental data as given in patent US7772246B2 (Pfizer Inc., priority 2007, dated 2010).

Columns and labels:
[1] = target: T1, b-Raf (Homo sapiens, UniProt P15056); assay: Raf biochemical assay (in vitro kinase assay, 32-P transfer from ATP to Mek1); conditions: full-length wild type b-Raf, Mek1 substrate; for inhibition at 1 µM: @ 1 μM compound, read-out: b-Raf % inhib @ 1 μM; for Ki: 25 μM ATP
T1 construct: Full-length wild type b-Raf is expressed in recombinant form and purified from bacterial or insect cells; made in house; host or cells: bacterial or insect cells
T1 sequence (P15056 whole entry): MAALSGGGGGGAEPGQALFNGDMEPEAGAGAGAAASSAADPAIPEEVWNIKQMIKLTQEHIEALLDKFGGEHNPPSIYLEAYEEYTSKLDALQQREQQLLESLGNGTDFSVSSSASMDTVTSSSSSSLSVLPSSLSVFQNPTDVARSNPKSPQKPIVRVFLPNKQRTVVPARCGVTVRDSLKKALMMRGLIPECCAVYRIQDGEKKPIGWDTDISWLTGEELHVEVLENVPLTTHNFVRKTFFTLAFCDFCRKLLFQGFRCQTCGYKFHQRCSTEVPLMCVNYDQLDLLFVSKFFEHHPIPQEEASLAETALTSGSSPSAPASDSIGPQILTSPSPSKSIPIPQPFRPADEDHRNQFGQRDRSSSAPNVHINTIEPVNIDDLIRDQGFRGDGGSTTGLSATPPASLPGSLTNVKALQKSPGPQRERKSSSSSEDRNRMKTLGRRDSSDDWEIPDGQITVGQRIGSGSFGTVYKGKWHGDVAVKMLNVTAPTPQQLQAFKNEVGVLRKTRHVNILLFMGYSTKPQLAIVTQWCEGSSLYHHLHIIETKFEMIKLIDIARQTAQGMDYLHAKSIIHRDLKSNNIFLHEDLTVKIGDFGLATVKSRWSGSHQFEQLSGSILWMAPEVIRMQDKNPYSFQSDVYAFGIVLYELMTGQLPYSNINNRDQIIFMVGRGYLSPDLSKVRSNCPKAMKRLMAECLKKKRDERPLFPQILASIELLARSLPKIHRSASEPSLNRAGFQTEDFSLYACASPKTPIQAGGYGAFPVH
Protocol: Compounds of the present invention were evaluated for potency against b-Raf using an in vitro kinase assay. Raf kinase activity is measured in vitro by determining transfer of radiolabeled 32-P phosphate from ATP to the specific Raf substrate Mek1. Full-length wild type b-Raf is expressed in recombinant form and purified from bacterial or insect cells. Recombinant Mek1 is purified from E. coli bacterial cells. In one assay format (designated G1), the full-length wild type Mek1 is used as the b-Raf substrate. In a second assay format (designated G2), the full-length K97R Mek1 mutant is used as the b-Raf substrate.
In vitro kinase assays are performed in solution containing the following; 50 mM Hepes (pH 7.4), 5 nM b-Raf, 0.8 μM Mek1, 10 mM MgCl2, 25 μM ATP, 0.002% (v/v) Tween-20, 5 μg/mL leupeptin, 1.2 mM DTT, 2% (v/v) DMSO, 0.2-1.0 μCi [γ-^32P]ATP per well.
The assays are performed in wells of a 96 well polypropylene round bottom plate, each well containing 43.5 μL assay mix and 1.5 μL inhibitor compound or DMSO vehicle. 15 μL of b-Raf mix is added and the plate is shaken on a plate shaker and preincubated for 10 minutes at ambient temperature. The reaction is started by addition of 15 μL ATP mix and shaking. The reaction is terminated after 40 minutes by addition of 25 μL 0.5 M EDTA (pH 7.4).
60 μL of the stopped reaction is transferred to a well of a 96-well nylon 66 Biodyne A membrane Silent Screen filter plate (Nalge/Nunc: 256081). The wells are filtered and washed five times with 0.85% phosphoric acid. The filter is placed in a tray with about 50 mL 0.85% phosphoric acid and gently rotated for 10 minutes on an orbital shaker. The procedure is repeated once with fresh 0.85% phosphoric acid. Five samples of 0.5 μL of ATP mix are also spotted onto filter paper for calculation of specific activity. The filters are air dried for one hour and sandwiched between cellophane wrap on an Amersham Biosciences Storage Phosphor Screen and developed at least over night. The image is read using a Molecular Dynamics Storm 840 phosphoimager. Volumes of spots are calculated using ImageQuant5.1.
Raf kinase activity is calculated from the specific activity of [32-P] ATP, 32-P incorporation into Mek1, and the concentration of b-Raf.

[2] = target: T2, b-Raf (Homo sapiens, UniProt P15056, V600E); assay: Raf cellular assay (phospho-Mek1/2 ELISA in A2058 cells); type: cell-based; conditions: Table 2; human melanoma A2058 cells (b-Raf mutation), Mek1/2 Ser217/221 phosphorylation, 1 hour incubation; read-out: pMEK IC50
T2 construct: endogenous in cells; host or cells: A2058 human melanoma cells
T2 sequence (P15056 whole entry V600E): as the sequence (P15056 whole entry) above, with V600E counted along it
How it was run: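 A2058 melanoma cells (B-Raf mutant), seeded overnight in 10% FBS DMEM, were exposed to compounds (11-point 1:3 series, duplicate) for 1 h at 37 °C. Lysates were captured on anti-Mek1-coated plates and Mek1/2 Ser217/221 phosphorylation was read by anti-phospho-Mek1/2 ELISA, HRP/TMB, 450 nm.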

Compound	inhibition at 1 µM [1] [%]	Ki [1] [µM]	IC50 [2] [µM]
CC(C)n1cc(-c2ccnc(NC[C@H](C)O)n2)c(-c2cnc3[nH]ccc3c2)n1 [Example B-1, (2S)-1-(4-(1-isopropyl-3-(1H-pyrrolo[2,3-b]pyridin-5-yl)-1H-pyrazol-4-yl)pyrimidin-2-ylamino)propan-2-ol]	102	0.0005	0.154
CC(C)n1cc(-c2ccnc(NCCn3ccccc3=O)n2)c(-c2cnc3[nH]ccc3c2)n1 [Example D-8, 1-[2-({4-[1-isopropyl-3-(1H-pyrrolo[2,3-b]pyridin-5-yl)-1H-pyrazol-4-yl]pyrimidin-2-yl}amino)ethyl]pyridin-2(1H)-one]	100	0.0007	0.542
Cc1[nH]c2ncc(-c3nn(C(C)C)cc3-c3ccnc(NC[C@H](C)O)n3)cc2c1Cl [Example E-3, (2S)-1-(4-(3-(3-chloro-2-methyl-1H-pyrrolo[2,3-b]pyridin-5-yl)-1-isopropyl-1H-pyrazol-4-yl)pyrimidin-2-ylamino)propan-2-ol]		0.0006	0.165
Cc1cc(-c2nn(C(C)C)cc2-c2ccnc(NC[C@H](C)O)n2)cnc1N [Example B-3, (2S)-1-(4-(3-(6-amino-5-methylpyridin-3-yl)-1-isopropyl-1H-pyrazol-4-yl)pyrimidin-2-ylamino)propan-2-ol]	98	0.011	0.815
CC(CO)Nc1nccc(-c2cn(C(C)C)nc2-c2cnc3[nH]ccc3c2)n1 (stereo in doubt) [Example D-9, (2R)-2-({4-[1-isopropyl-3-(1H-pyrrolo[2,3-b]pyridin-5-yl)-1H-pyrazol-4-yl]pyrimidin-2-yl}amino)propan-1-ol]	100	0.0016	0.918
Cc1[nH]c2ncc(-c3nn(C(C)C)cc3-c3ccnc(NC[C@H](C)O)n3)cc2c1C [Example B-6, (2S)-1-(4-(3-(2,3-dimethyl-1H-pyrrolo[2,3-b]pyridin-5-yl)-1-isopropyl-1H-pyrazol-4-yl)pyrimidin-2-ylamino)propan-2-ol]		0.0015	0.044
C[C@H](O)CNc1nccc(-c2cn(C)nc2-c2cnc3[nH]ccc3c2)n1 [Example B-13, (2S)-1-(4-(1-methyl-3-(1H-pyrrolo[2,3-b]pyridin-5-yl)-1H-pyrazol-4-yl)pyrimidin-2-ylamino)propan-2-ol]		0.0227	6.27
CC(C)n1cc(-c2ccnc(NC[C@H](C)O)n2)c(-c2cnc3c(c2)CCN3)n1 [Example B-12, (2S)-1-(4-(3-(2,3-dihydro-1H-pyrrolo[2,3-b]pyridin-5-yl)-1-isopropyl-1H-pyrazol-4-yl)pyrimidin-2-ylamino)propan-2-ol]		0.0016	0.45
CC(C)n1cc(-c2ccnc(NCCO)n2)c(-c2cnc3[nH]ccc3c2)n1 [Example D-6, 2-({4-[1-isopropyl-3-(1H-pyrrolo[2,3-b]pyridin-5-yl)-1H-pyrazol-4-yl]pyrimidin-2-yl}amino)ethanol]	101	0.00136	0.369

The remaining lines, values ahead:

inhibition at 1 µM [1] [%]	Ki [1] [µM]	IC50 [2] [µM]	Compound
	0.0003	0.109	Cc1n[nH]c2ncc(-c3nn(C(C)C)cc3-c3ccnc(NC[C@H](C)O)n3)cc12 [Example D-2, (2S)-1-(4-(1-isopropyl-3-(3-methyl-1H-pyrazolo[3,4-b]pyridin-5-yl)-1H-pyrazol-4-yl)pyrimidin-2-ylamino)propan-2-ol]
100	< 0.0001	0.015	C[C@H](O)CNc1nccc(-c2cn(CC(F)F)nc2-c2cnc3[nH]cc(Cl)c3c2)n1 [Example E-2, (2S)-1-(4-(3-(3-chloro-1H-pyrrolo[2,3-b]pyridin-5-yl)-1-(2,2-difluoroethyl)-1H-pyrazol-4-yl)pyrimidin-2-ylamino)propan-2-ol]
100	0.0005	0.182	CC(C)n1cc(-c2ccnc(NCCF)n2)c(-c2cnc3[nH]ccc3c2)n1 [Example D-5, N-(2-fluoroethyl)-4-[1-isopropyl-3-(1H-pyrrolo[2,3-b]pyridin-5-yl)-1H-pyrazol-4-yl]pyrimidin-2-amine]
99	0.0005	0.386	CC(C)n1cc(-c2ccnc(NCCc3cn[nH]c3)n2)c(-c2cnc3[nH]ccc3c2)n1 [Example D-7, 4-[1-isopropyl-3-(1H-pyrrolo[2,3-b]pyridin-5-yl)-1H-pyrazol-4-yl]-N-[2-(1H-pyrazol-4-yl)ethyl]pyrimidin-2-amine]
